Data: patent US10253030B2, “Crystal form, preparation method and intermediate of dihydropyrido ring compound” (QILU PHARMACEUTICAL CO., LTD., priority 2015, dated 2019)

Columns and labels:
HBV = experiment: qPCR assay for HBV in vitro test (HBV DNA content in HepG2.2.15 cells); type: cell-based
Procedure: qPCR Assay for HBV In Vitro Test
The HBV DNA content in HepG2.2.15 cells was detected by real-time qPCR assay, and the EC50 values of the compounds were used as indicators to evaluate the inhibitory effect of the compounds on HBV.
2.1 Cell Line: HepG2.2.15 Cells
3.1 HepG2.2.15 cells (4×10^4 cells/well) were seeded in a 96-well plate and incubated at 37° C. under 5% CO 2 overnight.
3.2 On the second day, the compound was diluted into a total of 8 concentrations with 3-fold gradient dilution. Different concentrations of the compound were added to the culture wells, in duplicate. The final concentration of DMSO in the culture medium was 1%. 1 μM GLS4 was used as 100% inhibition control; 1% DMSO was used as 0% inhibition control.
3.3 On the fifth day, the fresh culture medium containing the compound was replaced.
3.4 On the eighth day, the culture medium in the culture wells was collected and DNA was extracted using a high-throughput DNA purification kit (Qiagen-51162). Refer to the product manual for the specific procedure.
3.1 15 μl of reaction mixture was added to each well of a 96-well PCR plate, then 10 μl of sample DNA or standard of HBV DNA to each well.
3.2 PCR reaction conditions: heating at 95° C. for 10 minutes; then denaturing at 95° C. for 15 seconds, extension at 60° C. for 1 minute, a total of 40 cycles. […]

Hepatitis B virus = conditions: prior art, Science, 299 (2003), 893-896; cited from earlier work

SMILES | EC50 (HBV; Hepatitis B virus, 192 h, HBV DNA in culture medium by real-time qPCR, day 8, read-out: Concentration for 50% of inhibition (EC50) value on HBV) [nM] | inhibitory effect on HBV DNA (HBV; qPCR, conclusion in words) | IC50 (Hepatitis B virus) [nM]
COC(=O)C1=C2C[C@H](NS(N)(=O)=O)CN2C(c2nccs2)=N[C@H]1c1ccc(F)c(F)c1F [Compound 1] | ≤ 100 | significant inhibitory effect on HBV DNA | 
Nc1ccn([C@@H]2CS[C@H](CO)O2)c(=O)n1 [Iamivudine] |  |  | 300
